Test results published in publication PMC13184981, “Discovery and Development of a Potent LIMK2 Isoform-Specific Degrader” (ACS Chemical Biology, 2026).
pIC50, pKd: −log10 of the molar value.

What was measured:
[1] = target: VHL:ELOB:ELOC (Homo sapiens, UniProt P40337); assay: SPR VHL binary complex affinity and kinetics; type: binding; details: read-out: binary affinity toward VHL
Procedure: (§1) Approximately 1000 RU of biotinylated VHL:ELOB:ELOC was loaded onto a Series S CM5 chip coated with Streptavidin. All experiments were performed at 25 °C. The chip was equilibrated with a running buffer containing 20 mM HEPES, pH 7.4, 150 mM NaCl, 0.5 mM TCEP, 1% BSA, and 0.05% Tween 20.
To assess ternary complex formation, 1 μM of VHL-binding PROTAC was preincubated with a 2-fold molar excess of LIMK1 to promote binary complex formation and minimize the hook effect. The resulting binary complex was injected over the immobilized VHL:ELOB:ELOC surface at a flow rate of 30 μL/min for 60 s, followed by a dissociation phase of 180 s. An increase in resonance signal relative to the binary complex alone was used as an indicator of ternary complex formation. In separate experiments, binary and ternary complex affinities were measured and compared using serial dilutions as described for LIMK1. Additionally, the association rate constant (k a), dissociation rate constant (k d) were determined for the binary complexes.

[2] = target: T1, VHL:ELOB:ELOC and LIMK1 kinase domain (Homo sapiens, UniProt P40337+P53667); assay: SPR VHL ternary complex formation with LIMK1; type: binding
T1 construct: (330–S637), LIMK1-avi; 6xHis-Z-tag (TEV-cleavable) (N, cleaved yes); made in house; host or cells: LIMK1: insect cells (baculovirus)
T1 sequence (P40337 54-213 limits assumed, species assumed): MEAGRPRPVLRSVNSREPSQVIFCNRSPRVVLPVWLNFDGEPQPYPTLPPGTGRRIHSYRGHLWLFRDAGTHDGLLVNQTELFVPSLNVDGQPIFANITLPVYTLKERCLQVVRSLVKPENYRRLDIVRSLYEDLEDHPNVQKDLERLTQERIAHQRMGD
T1 sequence (Q15370 whole entry partner, species assumed, the tested form may be a part): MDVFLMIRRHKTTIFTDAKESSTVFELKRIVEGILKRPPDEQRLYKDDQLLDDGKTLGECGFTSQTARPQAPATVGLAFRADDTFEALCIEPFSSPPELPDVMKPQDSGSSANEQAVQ
T1 sequence (Q15369 17-112 partner limits assumed, species assumed): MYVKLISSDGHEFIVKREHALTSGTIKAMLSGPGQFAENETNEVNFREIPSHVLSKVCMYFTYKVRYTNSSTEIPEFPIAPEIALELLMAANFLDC
T1 sequence (P53667 330-637 limits assumed, species assumed): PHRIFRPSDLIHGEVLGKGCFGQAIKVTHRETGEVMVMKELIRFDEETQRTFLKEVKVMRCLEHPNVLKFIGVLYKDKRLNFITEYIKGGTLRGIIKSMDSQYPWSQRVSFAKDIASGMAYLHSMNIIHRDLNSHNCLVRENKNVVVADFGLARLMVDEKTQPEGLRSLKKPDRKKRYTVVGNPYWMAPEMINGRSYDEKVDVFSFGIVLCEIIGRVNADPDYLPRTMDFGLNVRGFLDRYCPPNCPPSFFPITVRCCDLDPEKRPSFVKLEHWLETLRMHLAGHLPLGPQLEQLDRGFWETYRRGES
Procedure: Surprised by the weak target engagement of VHL-based LIMK PROTACs, we investigated whether they form a stable ternary complex. To address this, we established an SPR-based ternary complex assay using immobilized VHL:ELOB/C complex on an SPR chip. In this assay format, the binary complex was formed by preincubating PROTACs with a 2-fold excess of purified LIMK1 kinase domain to avoid the hook effect. The binary complex was passed over an SPR surface immobilized with the VHL:ELOB/C complex. Ternary complex formation was detected as a large signal increase, as expected for the large molecular weight increase upon binding of the LIMK1 PROTAC complex (Figure C).
as §1
To assess ternary complex formation, 1 μM of VHL-binding PROTAC was preincubated with a 2-fold molar excess of LIMK1 to promote binary complex formation and minimize the hook effect. […] In separate experiments, binary and ternary complex affinities were measured and compared using serial dilutions as described for LIMK1. Additionally, the association rate constant (k a), dissociation rate constant (k d) were determined for the binary complexes.

[3] = target: T2, EGFP–LIMK2 (Homo sapiens, UniProt P53671); assay: EGFP-LIMK2 depletion live-cell assay (Incucyte); type: cell-based; details: for EGFP–LIMK2 degradation (in words): live cells, over 72 h
T2 construct: P2A remnant (from EGFP-LIMK2-P2A-mCherry; that residues stay on LIMK2 after self-cleavage is own knowledge) (C); expressed in transfected cells; host or cells: HuCCT1 (lentiviral transduction, doxycycline-inducible pCW57 vector)
T2 sequence (P53671 whole entry): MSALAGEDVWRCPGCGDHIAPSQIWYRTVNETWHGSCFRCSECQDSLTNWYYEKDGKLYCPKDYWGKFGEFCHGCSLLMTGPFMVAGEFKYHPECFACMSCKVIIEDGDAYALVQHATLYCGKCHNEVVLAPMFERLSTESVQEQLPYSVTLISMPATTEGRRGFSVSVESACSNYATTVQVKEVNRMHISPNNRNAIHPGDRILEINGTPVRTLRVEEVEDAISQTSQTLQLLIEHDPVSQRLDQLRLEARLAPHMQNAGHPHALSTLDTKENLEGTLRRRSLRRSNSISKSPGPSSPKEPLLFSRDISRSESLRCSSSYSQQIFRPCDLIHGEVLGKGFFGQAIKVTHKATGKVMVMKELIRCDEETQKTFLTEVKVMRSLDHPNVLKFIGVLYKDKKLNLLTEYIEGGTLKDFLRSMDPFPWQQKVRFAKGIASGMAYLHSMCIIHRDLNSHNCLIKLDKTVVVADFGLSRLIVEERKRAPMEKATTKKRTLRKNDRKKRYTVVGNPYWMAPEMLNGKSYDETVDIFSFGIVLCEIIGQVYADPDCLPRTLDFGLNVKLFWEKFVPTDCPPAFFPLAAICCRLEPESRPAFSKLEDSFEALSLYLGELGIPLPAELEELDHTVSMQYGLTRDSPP
Procedure: To enable a more comprehensive and rapid evaluation of the synthesized PROTACs, we generated a stable, doxycycline-inducible HuCCT1 cell line that expressed an N-terminally fused EGFP–LIMK2 protein. […] The degradation activity of the synthesized PROTACs set was screened at five concentrations ranging from 1 nM to 1000 nM over 72 h using live-cell imaging (Figure E).
LIMK2 was cloned into pcDNA5-EGFP-NLS-P2A-mCherry-PTS1 (Addgene plasmid #87803) by replacing the NLS sequence with the LIMK2 sequence. pcDNA5-EGFP-NLS-P2A-mCherry-PTS1 was a gift from Andrea Musacchio. Subsequently, EGFP-[…]-P2A-mCherry was cloned into the lentiviral vector pCW57-MCS1-P2A-MCS2 (Hygro) (Addgene plasmid #80922) to generate pCW57-HygB-EGFP-LIMK2-P2A-mCherry. pCW57-MCS1-P2A-MCS2 (Hygro) was a gift from Adam Karpf.
HEK293T cells (ATCC, CRL-3216) were cultured in Dulbecco’s Modified Eagle’s Medium (DMEM), while HUCCT1 cells (ATCC, CRL-1997) were cultured in RPMI medium supplemented with 10% fetal bovine serum (FBS) and 1% penicillin/streptomycin (P/S) antibiotic mix (all from Sigma-Aldrich, St. Louis, Missouri, USA). Lentiviral particles were produced in HEK293T cells using pCW57-HygB-EGFP-LIMK2-[…]P2A-mCherry, pMD2.G, and psPAX2. HUCCT1 cells were transduced with lentivirus to express LIMK2.
Briefly, the cells were plated and propagated in 6-well plates overnight. The next day, transduction with viruses was performed. Two days later, transduced cells with pCW57-HygB-EGFP-LIMK2-P2A-mCherry plasmids were selected using 100 μg/mL Hygromycin B. After at least three passages, the cells were sorted for the same populations of RFP- and GFP-expressing cells using the SH800S Cell Sorter (Sony Biotechnology, San Jose, CA, USA). Stable pools of cells were maintained in the same medium used for selection.
To assess the turnover of LIMK2, we used the Incucyte S3 or XS5 live-cell imaging system and performed the assay as previously described. , Briefly, 2,000 HUCCT1 cells stably expressing EGFP-LIMK2-P2A-mCherry were seeded per well in a 384-well plate in 50 μL of RPMI medium supplemented with 10% fetal bovine serum (FBS) and 1% penicillin/streptomycin. Cells were incubated for 24 h before treatment. To induce LIMK2 expression, 1 μg/mL of doxycycline (Sigma-Aldrich, D9891–1G) was added at the time of seeding.
After 24 h, 50 μL of medium containing either 0.1% DMSO or the desired concentration of PROTACs was added. Fluorescence in three channels–GFP, RFP, and phase contrast (cell confluence)–was monitored every 2 h for 72 h using the Incucyte S3 or XS5 (Sartorius, Germany). LIMK2 turnover was quantified by calculating the ratio of total fluorescence intensity of RFP to GFP. Each time point represents the average ratio from three technical replicates.

[4] = target: T3, LIMK2 (Homo sapiens, UniProt P53671); assay: NanoBRET cellular target engagement, LIMK2; type: cell-based; design: host or cells: HEK293T; details: HEK293T cells, Tracer K10, 2 h; read-out: LIMK2 NanoBRET IC50
T3 sequence (P53671 whole entry): as above
Procedure: Gene encoding LIMK1 (Promega, NV3391) and LIMK2 (Promega, NV1531), CRBN (Promega, N2741) proteins cloned in frame with NanoLuc fusion tag at the C-terminus, were transfected into HEK293T cells using FuGENE HD (Promega, E2312) following manufacture’s protocol and proteins were allowed to express for 20 h at 37 °C and 5% CO2. […] The 10 μL of transfected cells after trypsinization and resuspending in Opti-MEM (Life Technologies, 31985070) were dispensed into each well of the 384-well plate (Greiner 781207) at a cell density of 2 × 10^5 cells/mL. For dose–response BRET measurements, compounds at various concentrations, immediately followed by Tracer K10 (Promega, Tracer DB ID: T000008) for LIMK1 and LIMK2, CRBN Tracer (Promega, Tracer DB ID: T000018) for CRBN at an optimum KD concentration chosen from TracerDB (tracerdb.org), were pipetted using an Echo acoustic dispenser (Labcyte). The system was allowed to equilibrate for 2 h at 37 °C and 5% CO2 before BRET measurements. To measure BRET signal, the NanoBRET NanoGlo Substrate (Promega, N1573) was added as per the manufacturer’s protocol, and filtered luminescence was measured on a PHERAstar plate reader (BMG Labtech) equipped with a luminescence filter pair (450 nm BP filter (donor) and 610 nm LP filter (acceptor)). For lysed NanoBRET measurement, 25 nL of Digitonin (0.05 μg/μL) was pipetted to each well using Labcyte, and the plate was incubated for 5 min at 37 °C and 5% CO2. After incubation, the BRET signals were measured by a PHERAstar plate reader following the same procedure as intact NanoBRET measurement. […] The BRET ratios are normalized to both of them in the prism output data file. Competitive displacement data were then normalized to controls and were graphed using GraphPad Prism 9 software employing a normalized 3-parameter curve fit with the following equation: Y = 100/(1 + 10̂(X – logIC50)).

[5] = target: T4, LIMK1 (Homo sapiens, UniProt P53667); assay: Western blot of endogenous LIMK1 in HuCCT1 cells; type: cell-based; details: HuCCT1, 6 h treatment
T4 construct: host or cells: HEK293T
T4 sequence (P53667 whole entry): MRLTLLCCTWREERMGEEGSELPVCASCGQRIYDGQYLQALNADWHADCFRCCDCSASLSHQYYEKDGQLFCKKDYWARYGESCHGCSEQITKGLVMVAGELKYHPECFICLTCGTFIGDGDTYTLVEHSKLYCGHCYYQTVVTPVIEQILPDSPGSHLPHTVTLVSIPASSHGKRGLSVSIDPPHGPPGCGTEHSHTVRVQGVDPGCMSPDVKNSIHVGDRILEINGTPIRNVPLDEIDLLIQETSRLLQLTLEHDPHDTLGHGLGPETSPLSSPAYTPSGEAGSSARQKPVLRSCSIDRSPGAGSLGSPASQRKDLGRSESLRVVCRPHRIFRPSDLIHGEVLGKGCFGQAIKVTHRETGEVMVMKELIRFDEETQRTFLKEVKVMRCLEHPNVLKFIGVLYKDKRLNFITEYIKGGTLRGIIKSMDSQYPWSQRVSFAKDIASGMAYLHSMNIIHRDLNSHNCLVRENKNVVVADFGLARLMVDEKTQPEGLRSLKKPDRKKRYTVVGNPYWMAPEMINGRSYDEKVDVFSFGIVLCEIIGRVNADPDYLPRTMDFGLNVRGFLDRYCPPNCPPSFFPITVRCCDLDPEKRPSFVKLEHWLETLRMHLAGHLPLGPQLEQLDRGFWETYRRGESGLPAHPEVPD
Procedure: HuCCT1 cell line was cultured in Roswell Park Memorial Institute (RPMI) 1640 medium supplemented with GlutaMAX, 10% fetal bovine serum (FBS), and 1% penicillin/streptomycin. The cell line was maintained in an incubator with 5% CO2 at 37 °C. For the treatment, 3 × 10^5 cells were plated and treated with the compounds and DMSO as the control for 6 h. The cells were then lysed using RIPA buffer (50 mM Tris-HCl pH 7.4, 150 mM NaCl, 1% Triton X-100, 1% NaDOC, 0.1% SDS, 1 mM EDTA), freshly supplemented with protease and phosphatase inhibitor cocktails (Sigma-Aldrich, Darmstadt, Germany). After 1 h incubation on ice, the lysates were centrifuged for 30 min at […], and the protein-containing supernatant was collected. The protein concentrations were determined using Protein Assay Dye Reagent Concentrate (Bradford, Bio-Rad, Hercules, CA, USA) and Pre-Diluted Protein Assay Standards: Bovine Serum Albumin (BSA) Set (Thermo Fisher Scientific, Darmstadt, Germany). Then, equal amounts of protein was mixed with Roti-Load 1 dye (Carl Roth, Karlsruhe, Germany) and 4x Laemmli Buffer (Bio-Rad, Hercules, CA, USA), denatured at 95 °C, and run on NuPAGE 4–12% bis-Tris gels (Thermo Fisher Scientific). Proteins were blotted on methanol-activated PVDF Transfer Membranes (Thermo Fisher Scientific) using the wet transfer method with the transfer buffer (Thermo Fisher Scientific) and 20% methanol. […]

[6] = target: T3, LIMK2; assay: Western blot of endogenous LIMK2 in HuCCT1 cells; type: cell-based; details: HuCCT1, 6 h treatment
Procedure: HuCCT1 cell line was cultured in Roswell Park Memorial Institute (RPMI) 1640 medium supplemented with GlutaMAX, 10% fetal bovine serum (FBS), and 1% penicillin/streptomycin. The cell line was maintained in an incubator with 5% CO2 at 37 °C. For the treatment, 3 × 10^5 cells were plated and treated with the compounds and DMSO as the control for 6 h. The cells were then lysed using RIPA buffer (50 mM Tris-HCl pH 7.4, 150 mM NaCl, 1% Triton X-100, 1% NaDOC, 0.1% SDS, 1 mM EDTA), freshly supplemented with protease and phosphatase inhibitor cocktails (Sigma-Aldrich, Darmstadt, Germany). After 1 h incubation on ice, the lysates were centrifuged for 30 min at […], and the protein-containing supernatant was collected. The protein concentrations were determined using Protein Assay Dye Reagent Concentrate (Bradford, Bio-Rad, Hercules, CA, USA) and Pre-Diluted Protein Assay Standards: Bovine Serum Albumin (BSA) Set (Thermo Fisher Scientific, Darmstadt, Germany). Then, equal amounts of protein was mixed with Roti-Load 1 dye (Carl Roth, Karlsruhe, Germany) and 4x Laemmli Buffer (Bio-Rad, Hercules, CA, USA), denatured at 95 °C, and run on NuPAGE 4–12% bis-Tris gels (Thermo Fisher Scientific). Proteins were blotted on methanol-activated PVDF Transfer Membranes (Thermo Fisher Scientific) using the wet transfer method with the transfer buffer (Thermo Fisher Scientific) and 20% methanol. Afterward, the membranes were blocked with 5% milk or 3% BSA in 0.1% TBS-T for 1 h at RT and incubated overnight at 4 °C with primary antibodies: GAPDH (catalog no. 2118, Cell Signaling Technology, MA, USA, 1:1000 dilution), LIMK1 (catalog no. 3842, Cell Signaling Technology, 1:1000 dilution), LIMK2 (catalog no. 3845, 1:500 dilution), phospho-Cofilin (catalog no. 3313, Cell Signaling Technology, 1:1000 dilution), Cofilin (catalog no. 5175, Cell Signaling Technology, 1:1000 dilution). Then, the membranes were washed with 0.1% TBS-T and incubated with secondary horseradish-peroxidase (HRP)-conjugated antibody for 2 h (catalog no. 7074, Cell Signaling Technology, 1:3000 dilution). The membranes were washed again with 0.1% TBS-T before they were developed using X-ray films (Fujifilm, Dusseldorf, Germany).

[7] = system: HEK293T cells; assay: CellTiter-Glo 2.0 cell viability assay; type: cell-based, human; details: 24-h treatment, 25 nM to 20 µM
Procedure: The effects of the PROTAC on cell viability were determined using the CellTiter-Glo 2.0 Cell Viability Assay (Promega, G9241) following the manufacturer’s protocol. […] 40 μL of assay reagent was added and incubated for 10 min at RT. Filtered luminescence was measured using a PHERAstar plate reader (BMG Labtech), and data were analyzed using GraphPad Prism 9.

Chain of VHL:ELOB:ELOC (P40337 54-213 limits assumed, species assumed): as the sequence (P40337 54-213 limits assumed, species assumed) above
Chain of VHL:ELOB:ELOC (Q15370 whole entry partner, species assumed): as the sequence (Q15370 whole entry partner, species assumed, the tested form may be a part) above
Chain of VHL:ELOB:ELOC (Q15369 17-112 partner limits assumed, species assumed): as the sequence (Q15369 17-112 partner limits assumed, species assumed) above

For Cc1ncc(-c2ccc(CNC(=O)[C@@H]3C[C@@H](O)CN3C(=O)[C@@H](NC(=O)CCCc3cn(CCCCC(=O)Nc4ncc(-c5cc(C(F)F)nn5-c5c(Cl)cccc5Cl)s4)nn3)C(C)(C)C)cc2)s1 [23h], the pKd [1] was < 6.00 and the “higher affinity upon formation of ternary complex vs binary” value [2] was 10 fold.
For Cc1c(OCc2cn(CCCCCC(=O)Nc3ncc(-c4cc(C(F)F)nn4-c4c(Cl)cccc4Cl)s3)nn2)cccc1N1CCC(=O)NC1=O [22c], the DC50 ([3]; HuCCT1 EGFP–LIMK2 cells, live-cell kinetic assay over 72 h, read-out: DC50 (LIMK2 degradation)) was 13.7 nM, the “potency enhancement (DC50) relative to 21b” value ([3]; vs 21b) was 2.4 fold and the pIC50 [4] was 7.10.
For O=C1CCC(N2C(=O)c3cccc(OCc4cn(CC(=O)Nc5ncc(-c6cc(C(F)F)nn6-c6c(Cl)cccc6Cl)s5)nn4)c3C2=O)C(=O)N1 (stereo not drawn) [21a], the “LIMK1 degradation (Western blot)” value [5] was “did not degrade either isoform” and the “LIMK2 degradation (Western blot)” value [6] was “did not degrade either isoform”.
With Cc1ncc(-c2ccc(CNC(=O)[C@@H]3C[C@@H](O)CN3C(=O)[C@@H](NC(=O)c3cn(CCCCCC(=O)Nc4ncc(-c5cc(C(F)F)nn5-c5c(Cl)cccc5Cl)s4)nn3)C(C)(C)C)cc2)s1 [23c] the “EGFP–LIMK2 degradation (in words)” value [3] was “moderate LIMK2 degradation” and the “LIMK2 degradation (Western blot)” value [6] was “modest LIMK2 degradation at 1 μM”.
For Cc1c(OCc2cn(CCCCC(=O)Nc3ncc(-c4cc(C(F)F)nn4-c4c(Cl)cccc4Cl)s3)nn2)cccc1N1CCC(=O)N(C)C1=O [THNAN69-NC], the “EGFP–LIMK2 degradation (in words)” value [3] was “no degradation of LIMK2”, the cytotoxic effects [7] was “no cytotoxic effects” and the “LIMK2 degradation (Western blot)” value [6] was “did not induce any LIMK2 degradation”.
For Cc1ncc(-c2ccc(CNC(=O)[C@@H]3C[C@@H](O)CN3C(=O)[C@@H](NC(=O)CCCc3cn(CCCCCC(=O)Nc4ncc(-c5cc(C(F)F)nn5-c5c(Cl)cccc5Cl)s4)nn3)C(C)(C)C)cc2)s1 [23i], the pKd [1] was < 6.00 and the “higher affinity upon formation of ternary complex vs binary” value [2] was 10 fold.
With Cc1ncc(-c2ccc(CNC(=O)[C@@H]3C[C@@H](O)CN3C(=O)[C@@H](NC(=O)CCc3cn(CCCCCC(=O)Nc4ncc(-c5cc(C(F)F)nn5-c5c(Cl)cccc5Cl)s4)nn3)C(C)(C)C)cc2)s1 [23f] the pKd [1] was < 6.00.
